From ChEMBL document CHEMBL4418484, “Inhibitors of nkx2.5 for vascular remodelling” (2015)
The source made the active and inactive calls. No cut-off for these calls is given here.

What was measured:
Homo sapiens [1] = organism: Homo sapiens; test: Inhibition of casein kinase-2 in human pulmonary smooth muscle cells assessed as reduction in Nkx2-5 nuclear translocation
[2] = Effect on Nkx2-5 cytosolic expression in human pulmonary smooth muscle cells; type: ADME; settings: cytosol
Mus musculus [3] = test: Inhibition of right ventricular systolic pressure increase in […] mouse hypoxia/Sugen pre-clinical model of pulmonary hypertension at 80 mg/kg dosed daily for 20 days starting immediately post experimental initiation; type: functional, organism-based
Homo sapiens [4] = organism: Homo sapiens; test: Inhibition of de-differentiation of human pulmonary smooth muscle cells assessed as reduction in contractile to synthetic forms change; type: functional
Homo sapiens [5] = organism: Homo sapiens; test: Inhibition of casein kinase-2/Nkx2-5 in human pulmonary smooth muscle cells assessed as down-regulation of COL1 protein expression at 1 nM by Western blot analysis
Homo sapiens [6] = organism: Homo sapiens; test: Inhibition of casein kinase-2/Nkx2-5 in human pulmonary smooth muscle cells assessed as down-regulation of COL1 protein expression at 10 nM by Western blot analysis
Homo sapiens [7] = organism: Homo sapiens; test: Inhibition of casein kinase-2/Nkx2-5 in human pulmonary smooth muscle cells assessed as down-regulation of CCN2 protein expression at 1 nM by Western blot analysis
Homo sapiens [8] = organism: Homo sapiens; test: Inhibition of casein kinase-2/Nkx2-5 in human pulmonary smooth muscle cells assessed as down-regulation of CCN2 protein expression at 10 nM by Western blot analysis
Homo sapiens [9] = organism: Homo sapiens; test: Inhibition of casein kinase-2/Nkx2-5 in human pulmonary smooth muscle cells assessed as up-regulation of ACTA2 protein expression at 1 nM by Western blot analysis
Homo sapiens [10] = organism: Homo sapiens; test: Inhibition of casein kinase-2/Nkx2-5 in human pulmonary smooth muscle cells assessed as up-regulation of ACTA2 protein expression at 10 nM by Western blot analysis
Homo sapiens [11] = organism: Homo sapiens; test: Inhibition of casein kinase-2/Nkx2-5 in human pulmonary smooth muscle cells assessed as up-regulation of MYH11 protein expression at 1 nM by Western blot analysis
Homo sapiens [12] = organism: Homo sapiens; test: Inhibition of casein kinase-2/Nkx2-5 in human pulmonary smooth muscle cells assessed as up-regulation of MYH11 protein expression at 10 nM by Western blot analysis
Homo sapiens [13] = organism: Homo sapiens; test: Inhibition of cell migration of human pulmonary smooth muscle cells by standard scratch assay; type: functional
Homo sapiens [14] = organism: Homo sapiens; test: Inhibition of cell proliferation of human pulmonary smooth muscle cells incubated up to 120 hrs; type: functional
Mus musculus [15] = test: Inhibition of right ventricular systolic pressure increase in […] mouse hypoxia/Sugen pre-clinical model of pulmonary hypertension at 80 mg/kg dosed daily for 20 days starting 8 days post experimental initiation; type: functional, organism-based
Mus musculus [16] = test: Effect on systemic pressure in […] mouse hypoxia/Sugen pre-clinical model of pulmonary hypertension at 80 mg/kg dosed daily for 20 days starting immediately post experimental initiation; type: ADME, organism-based; settings: in vivo, 480 h
Mus musculus [17] = test: Effect on systemic pressure in […] mouse hypoxia/Sugen pre-clinical model of pulmonary hypertension at 80 mg/kg dosed daily for 20 days starting 8 days post experimental initiation; type: functional, organism-based

inhibition (Homo sapiens [1])	inhibition (Homo sapiens [5])	inhibition (Homo sapiens [6])	inhibition (Homo sapiens [7])	inhibition (Homo sapiens [8])	inhibition (Homo sapiens [9])	inhibition (Homo sapiens [10])	inhibition (Homo sapiens [11])	inhibition (Homo sapiens [12])	SMILES	Activity [2]	inhibition (Mus musculus [3])	inhibition (Homo sapiens [4])	inhibition (Homo sapiens [13])	inhibition (Homo sapiens [14])	inhibition (Mus musculus [15])	Activity (Mus musculus [16])	Activity (Mus musculus [17])
Active	–	–	–	–	–	–	–	–	COc1cc(Nc2ncc3ccn(-c4cccc(CCC#N)c4)c3n2)cc(OC)c1OC	Non-Toxic	–	–	–	–	–	–	–
–	Active	Active	Active	Active	Active	Active	Active	Active	O=C(O)c1ccc2c(c1)nc(Nc1cccc(Cl)c1)c1ccncc12 [SILMITASERTIB]	–	Active	Dose-dependent effect	Dose-dependent effect	Dose-dependent effect	Active	Non-Toxic	inactive
